Experimental data reported in US7964531B2, “3-phenoxy-4-pyridazinol derivatives and herbicidal composition containing the same” (Mitsui Chemicals Agro, Inc., priority 2001, dated 2011).

Legend:
Format in all cases: in vivo
[1] = system: Cyperus serotinus; assay: Test Example 1: herbicidal effects, paddy-field pot test; settings: wettable powder applied 3 days after transplanting, judged after 25 days
Summary of the method: (§1)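 Herbicidal effect and rice injury were graded on a six-step growth-inhibition scale (0: 0–10% to 5: 91–100%) at 25 days after pot application of water-diluted wettable powder, given 3 days post-transplant under flooded greenhouse conditions.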

[2] = system: Scirpus joncoides; assay: as above; settings: wettable powder applied 3 days after transplanting, judged after 25 days
Summary of the method: as §1

[3] = system: annual broad-leaved weeds (Lindernia spp., Rotala indica); assay: as above; settings: wettable powder applied 3 days after transplanting, judged after 25 days
Summary of the method: as §1

[4] = system: barnyardgrass (Echinochloa oryzicola Vasing.); assay: as above; settings: wettable powder applied 3 days after transplanting, judged after 25 days
Summary of the method: as §1

[5] = system: transplanted paddy-field rice; assay: Test Example 1: crop injury against transplanted paddy-field rice; settings: wettable powder applied 3 days after transplanting, judged after 25 days
Summary of the method: as §1

[6] = system: barnyardgrass; assay: Test Example 2: herbicidal effects (soil treatment); settings: dosage 5 kg/a; soil treatment the day after seeding; judged after 21 days
Excerpt: (§2) Judgment Standard • 0: Growth inhibition rate; 0 to 10% • 1: Growth inhibition rate; 11 to 30% • 2: Growth inhibition rate; 31 to 50% • 3: Growth inhibition rate; 51 to 70% • 4: Growth inhibition rate; 71 to 90% • 5: Growth inhibition rate; 91 to 100%.
(§3) Upland soil was filled in 150 cm^2 pot, and seeds of barnyardgrass and indian mustard (Brassica juncea (L.) Czern. et Coss) were sowed, and grown in a greenhouse. At the next day of seeding, a predetermined chemical dosage of the wettable powder prepared in accordance with Preparation example 1 was diluted in water and applied to soil surface. After 21 days from the treatment, herbicidal effects were judged in accordance with the judgment standard of Test example 1, and the results were shown in Table 3.

[7] = system: indian mustard (Brassica juncea (L.) Czern. et Coss); assay: as above; settings: dosage 5 kg/a; soil treatment the day after seeding; judged after 21 days
Excerpt: as §2, §3

[8] = system: indian mustard; assay: Test Example 3: herbicidal effects (foliar treatment); settings: chemical dosage 0.5 kg/a; foliar treatment at 10 to 15 cm; judged after 14 days
Description: as §2
(§4) Upland soil was filled in 150 cm^2 pot, and seeds of velvetleaf, tall morningglory, indian mustard, black nightshade redroot pigweed were sowed, and grown in a greenhouse. After the weeds were grown with 10 to 15 cm or so, a predetermined chemical dosage of the wettable powder prepared in accordance with Preparation example 1 was diluted with water containing 0.05% of GRAMIN-S and applied as a foliar treatment. After 14 days from the treatment, herbicidal effects were judged in accordance with the judgment standard of Test example 1, and the results were shown in Table 4. Incidentally, “-” in the table means no test was carried out.

[9] = system: redroot pigweed; assay: as above; settings: chemical dosage 0.5 kg/a; foliar treatment at 10 to 15 cm; judged after 14 days
Description: as §2, §4

[10] = system: tall morningglory; assay: as above; settings: chemical dosage 0.5 kg/a; foliar treatment at 10 to 15 cm; judged after 14 days
Description: as §2, §4

[11] = system: Cyperus esculentus L.; assay: Test Example 5: herbicidal effects, upland (soil treatment); settings: after 21 days
Description: (§5) Upland soil was filled in 150 cm^2 pot, and seeds of barnyardgrass, Cyperus esculentus L., velvetleaf, black nightshade, tall morningglory and corn were sowed, and grown in a greenhouse. At the next day of seeding, a predetermined chemical dosage of the wettable powder prepared in accordance with Preparation example 5 was diluted with water and applied to soil surface. After 21 days from the treatment, herbicidal effects and crop injury against corn were judged according to the following judgment standard, and the results were shown in Tables 6 to 8.
(§6) Judgment Standard • 0: Growth inhibition rate; 0 to 9% • 1: Growth inhibition rate; 10 to 19% • 2: Growth inhibition rate; 20 to 29% • 3: Growth inhibition rate; 30 to 39% • 4: Growth inhibition rate; 40 to 49% • 5: Growth inhibition rate; 50 to 59% • 6: Growth inhibition rate; 60 to 69% • 7: Growth inhibition rate; 70 to 79% • 8: Growth inhibition rate; 80 to 89% • 9: Growth inhibition rate; 90 to 98% • 10: Growth inhibition rate; 99 to 100%.

[12] = system: barnyardgrass; assay: as above; settings: after 21 days
Description: as §5, §6

[13] = system: black nightshade; assay: as above; settings: after 21 days
Description: as §5, §6

[14] = system: tall morningglory; assay: as above; settings: after 21 days
Description: as §5, §6

[15] = system: velvetleaf; assay: as above; settings: after 21 days
Description: as §5, §6

[16] = system: corn; assay: Test Example 5: crop injury against corn (soil treatment); settings: after 21 days
Description: as §5, §6

[17] = system: Cyperus esculentus L.; assay: Test Example 6: herbicidal effects, upland (foliar treatment); settings: after 14 days
Excerpt: as §6
(§7) Upland soil was filled in 150 cm^2 pot, and seeds of barnyardgrass, Cyperus esculentus L., velvetleaf, black nightshade, tall morningglory and corn were sowed, and grown in a greenhouse. After the weeds were grown with 10 to 15 cm or so, a predetermined chemical dosage of the wettable powder prepared in accordance with Preparation example 5 was diluted with water containing 0.05% of GRAMIN S and applied as a foliar treatment. After 14 days from the treatment, herbicidal effects and crop injury were judged in accordance with the judgment standard of Test example 5, and the results were shown in Tables 9 and 10. Incidentally, “-” in the table means no effective ingredient was contained.

[18] = system: barnyardgrass; assay: as above; settings: after 14 days
Excerpt: as §6, §7

[19] = system: black nightshade; assay: as above; settings: after 14 days
Excerpt: as §6, §7

[20] = system: tall morningglory; assay: as above; settings: after 14 days
Excerpt: as §6, §7

[21] = system: velvetleaf; assay: as above; settings: after 14 days
Excerpt: as §6, §7

[22] = system: corn; assay: Test Example 6: crop injury against corn (foliar treatment); settings: after 14 days
Excerpt: as §6, §7

Oc1cc(Cl)nnc1Oc1c(F)cccc1C1CC1 [Example 236]
Herbicidal effects Cyperus serotinus ([1]; chemical dosage 10 g/a): 5 (Growth inhibition rate; 91 to 100%) | Herbicidal effects Cyperus serotinus ([1]; chemical dosage 20 g/a): 5 (Growth inhibition rate; 91 to 100%) | Herbicidal effects Scirpus joncoides ([2]; chemical dosage 10 g/a): 5 (Growth inhibition rate; 91 to 100%) | Herbicidal effects Scirpus joncoides ([2]; chemical dosage 20 g/a): 5 (Growth inhibition rate; 91 to 100%) | Herbicidal effects Broad leaf ([3]; chemical dosage 10 g/a): 5 (Growth inhibition rate; 91 to 100%) | Herbicidal effects Broad leaf ([3]; chemical dosage 20 g/a): 5 (Growth inhibition rate; 91 to 100%) | Herbicidal effects Barnyard grass ([4]; chemical dosage 10 g/a): 3 (Growth inhibition rate; 51 to 70%) | Herbicidal effects Barnyard grass ([4]; chemical dosage 20 g/a): 4 (Growth inhibition rate; 71 to 90%) | Crop injury against transplanted rice ([5]; chemical dosage 10 g/a): 0 (Growth inhibition rate; 0 to 10%) | Crop injury against transplanted rice ([5]; chemical dosage 20 g/a): 0 (Growth inhibition rate; 0 to 10%) | Herbicidal effects Barnyard-grass [6]: 3 (Growth inhibition rate; 51 to 70%) | Herbicidal effects indian mustard [7]: 5 (Growth inhibition rate; 91 to 100%) | Herbicidal effects indian mustard [8]: 3 (Growth inhibition rate; 51 to 70%) | Herbicidal effects Redroot pigweed [9]: 3 (Growth inhibition rate; 51 to 70%) | Herbicidal effects Tall Morningglory [10]: 4 (Growth inhibition rate; 71 to 90%)

CS(=O)(=O)c1ccc(C(=O)C2C(=O)CCCC2=O)c([N+](=O)[O-])c1 [Compound F, 2-(4-mesyl-2-nitrobenzoyl)cyclohexan-1,3-dione]
Herbicidal effects Cyperus esculentus ([11]; F alone 25 g/ha): 8 (Growth inhibition rate; 80 to 89%) | Herbicidal effects Cyperus esculentus ([11]; F alone 50 g/ha): 9 (Growth inhibition rate; 90 to 98%) | Herbicidal effects Cyperus esculentus ([11]; F alone 100 g/ha): 9 (Growth inhibition rate; 90 to 98%) | Herbicidal effects Barnyard grass ([12]; F alone 25 g/ha): 4 (Growth inhibition rate; 40 to 49%) | Herbicidal effects Barnyard grass ([12]; F alone 50 g/ha): 8 (Growth inhibition rate; 80 to 89%) | Herbicidal effects Barnyard grass ([12]; F alone 100 g/ha): 9 (Growth inhibition rate; 90 to 98%) | Herbicidal effects Black Nightshade ([13]; F alone 25 g/ha): 6 (Growth inhibition rate; 60 to 69%) | Herbicidal effects Black Nightshade ([13]; F alone 50 g/ha): 3 (Growth inhibition rate; 30 to 39%) | Herbicidal effects Black Nightshade ([13]; F alone 100 g/ha): 8 (Growth inhibition rate; 80 to 89%) | Herbicidal effects Tall Morningglory ([14]; F alone 25 g/ha): 2 (Growth inhibition rate; 20 to 29%) | Herbicidal effects Tall Morningglory ([14]; F alone 50 g/ha): 5 (Growth inhibition rate; 50 to 59%) | Herbicidal effects Tall Morningglory ([14]; F alone 100 g/ha): 8 (Growth inhibition rate; 80 to 89%) | Herbicidal effects Velvetleaf ([15]; F alone 25 g/ha): 9 (Growth inhibition rate; 90 to 98%) | Herbicidal effects Velvetleaf ([15]; F alone 50 g/ha): 10 (Growth inhibition rate; 99 to 100%) | Herbicidal effects Velvetleaf ([15]; F alone 100 g/ha): 10 (Growth inhibition rate; 99 to 100%) | Crop ijury against corn ([16]; F alone 25 g/ha): 0 (Growth inhibition rate; 0 to 9%) | Crop ijury against corn ([16]; F alone 50 g/ha): 0 (Growth inhibition rate; 0 to 9%) | Crop ijury against corn ([16]; F alone 100 g/ha): 0 (Growth inhibition rate; 0 to 9%) | Herbicidal effects Cyperus esculentus ([17]; F alone 25 g/ha): 4 (Growth inhibition rate; 40 to 49%) | Herbicidal effects Cyperus esculentus ([17]; F alone 50 g/ha): 5 (Growth inhibition rate; 50 to 59%) | Herbicidal effects Cyperus esculentus ([17]; F alone 100 g/ha): 6 (Growth inhibition rate; 60 to 69%) | Herbicidal effects Barnyard grass ([18]; F alone 25 g/ha): 0 (Growth inhibition rate; 0 to 9%) | Herbicidal effects Barnyard grass ([18]; F alone 50 g/ha): 0 (Growth inhibition rate; 0 to 9%) | Herbicidal effects Barnyard grass ([18]; F alone 100 g/ha): 2 (Growth inhibition rate; 20 to 29%) | Herbicidal effects Black Nightshade ([19]; F alone 25 g/ha): 7 (Growth inhibition rate; 70 to 79%) | Herbicidal effects Black Nightshade ([19]; F alone 50 g/ha): 10 (Growth inhibition rate; 99 to 100%) | Herbicidal effects Black Nightshade ([19]; F alone 100 g/ha): 9 (Growth inhibition rate; 90 to 98%) | Herbicidal effects Tall Morningglory ([20]; F alone 25 g/ha): 2 (Growth inhibition rate; 20 to 29%) | Herbicidal effects Tall Morningglory ([20]; F alone 50 g/ha): 5 (Growth inhibition rate; 50 to 59%) | Herbicidal effects Tall Morningglory ([20]; F alone 100 g/ha): 9 (Growth inhibition rate; 90 to 98%) | Herbicidal effects Velvetleaf ([21]; F alone 25 g/ha): 9 (Growth inhibition rate; 90 to 98%) | Herbicidal effects Velvetleaf ([21]; F alone 50 g/ha): 10 (Growth inhibition rate; 99 to 100%) | Herbicidal effects Velvetleaf ([21]; F alone 100 g/ha): 10 (Growth inhibition rate; 99 to 100%) | Crop injury against corn ([22]; F alone 25 g/ha): 0 (Growth inhibition rate; 0 to 9%) | Crop injury against corn ([22]; F alone 50 g/ha): 0 (Growth inhibition rate; 0 to 9%) | Crop injury against corn ([22]; F alone 100 g/ha): 0 (Growth inhibition rate; 0 to 9%)
